Assay results from patent US20240277682A1, “PHARMACEUTICAL HYDRONIDONE FORMULATIONS FOR DISEASES” (Gyre Therapeutics, Inc., priority 2021, published 2024).

Assay: In vitro drug-drug interaction with Entecavir and Lamivudine in human liver microsomes
Details: each 1.5 mM, P>0.05
Experimental: Entecavir and Lamivudine, were used concomitantly with Hydronidone, or individually, in the in vitro drug interaction experiments, in respective concentrations of each of 1.5 mM.

Compound: Nc1ccn([C@@H]2CS[C@H](CO)O2)c(=O)n1 [lamivudine, reference compound]
- drug interactions with Hydronidone (residual drug concentrations, individual vs combined medication groups): do not exhibit drug interactions with Hydronidone
